Experiments:
LTB4 Receptor = target: T1, LTB4 Receptor (Homo sapiens, UniProt Q15722); experiment: LTB4 Receptor Binding Assay; settings: potency relative to compound of Example 1(b), defined as 1.0; 0.6×10^-9 M (^3H) LTB4, human neutrophils, 0° C, 45 minutes
T1 construct: Neutrophils were purified from venous blood of normal human donors; endogenous in cells; host or cells: neutrophils from venous blood of normal human donors (>95% pure)
Method: Neutrophils were purified from venous blood of normal human donors using standard techniques of dextran sedimentation, centrifugation on Ficoll-paque® (Pharmacia) or Histopaque® sterile solution (Sigma) and hypotonic lysis of erythrocytes (Boyum, A., Isolation of Leukocytes From Human Blood: Further Observations. Scand. J. Lab. Clin. Invest., 21 (Suppl. 97): 31, 1968). […] The incubation was carried out at 0° C. for 45 minutes and terminated by adding 5 ml of ice-cold HBSS followed by rapid filtration of incubation mixture under vacuum through GF/C glass fiber filters. The filters were further washed with 10 ml HBSS and radioactivity was determined. […] All data refer to specific binding. […] Pat. No. 4,889,871.

Human neutrophils [1] = experiment: Modified Boyden Chamber Chemotaxis, LTB4-induced; format: cell-based; settings: 3×10^-8 M LTB4, 90 minutes, 37° C; for Relative Potency, Chemotaxis LTB4: potency relative to compound of Example 1(b), defined as 1.0
Source text: (§1) Neutrophils were purified from venous blood of normal human donors using standard techniques of dextran sedimentation, centrifugation on Ficoll-paque® (Pharmacia) or Histopaque® sterile solution (Sigma) and hypotonic lysis of erythrocytes (Boyum, A., Isolation of Leukocytes From Human Blood: Further Observations. Scand. J. Lab. Clin. Invest., 21 (Suppl. 97): 31, 1968). The purity of isolated neutrophils was >95%. […] A final cell suspension of 3.4×10^6 neutrophils/ml of HEPES-buffered Hanks' balanced salt solution (HBSS, pH 7.3) was added to the upper well (0.8 ml) of a modified Boyden chamber (blind well). […] Following a 90 minute incubation at 37° C. in 5% CO2 -95% air, cells from the lower well were lysed and nuclei counted in a Model S-Plus-IV Coulter Counter. Percent inhibition was calculated from cell counts corrected for random migration by subtracting the mean of the HBSS control. […] Pat. No. 4,889,871.

Human neutrophils [2] = experiment: Modified Boyden Chamber Chemotaxis, fMLP-induced; format: cell-based; settings: 1.0×10^-8 M fMLP, 90 minutes, 37° C; for Relative Potency, Chemotaxis fMLP: potency relative to compound of Example 1(b), defined as 1.0
Source text: as §1

[3] = Homo sapiens, Neutrophil, 1.5 h, value in parentheses

T1 sequence (Q15722 whole entry): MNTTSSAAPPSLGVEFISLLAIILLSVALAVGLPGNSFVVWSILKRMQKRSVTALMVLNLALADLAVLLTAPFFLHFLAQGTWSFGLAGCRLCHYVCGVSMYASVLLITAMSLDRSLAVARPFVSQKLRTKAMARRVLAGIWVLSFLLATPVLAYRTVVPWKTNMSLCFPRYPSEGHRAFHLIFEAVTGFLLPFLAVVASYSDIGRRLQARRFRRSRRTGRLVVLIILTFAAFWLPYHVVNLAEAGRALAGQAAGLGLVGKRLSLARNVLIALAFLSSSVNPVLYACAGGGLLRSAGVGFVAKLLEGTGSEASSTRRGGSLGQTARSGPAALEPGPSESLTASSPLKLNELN

Relative Potency, LTB4 Receptor Binding (LTB4 Receptor)	IC50 (Human neutrophils [1]; [3]) [µM]	IC50 (Human neutrophils [2]; [3]) [µM]	SMILES	Relative Potency, Chemotaxis LTB4 (Human neutrophils [1])	Relative Potency, Chemotaxis fMLP (Human neutrophils [2])
0.70			CCCc1c(OCCCOc2ccc(-c3ccon3)c(OC)c2CCC)ccc2c1OC(C(=O)O)CC2 (centres unmarked) [Example 4, 3,4-Dihydro-7-[3-[4-(3-isoxazolyl)-3-methoxy-2-propylphenoxy]propoxy]-8-propyl-2H-1-benzopyran-2-carboxylic acid]	0.25	0.37
	1.8	5.4	CCCc1c(OCCCOc2ccc(C(C)=O)c(OC)c2CCC)ccc2c1OC(C(=O)O)CC2 (centres unmarked) [Example 1(b), 7-[3-(4-acetyl-3-methoxy-2-propylphenoxy)propoxy]-3,4-dihydro-8-propyl-2H-1-benzopyran-2-carboxylic acid, reference compound]		
0.88			CCCc1c(OCCCOc2ccc(-c3cc[nH]n3)c(OC)c2CCC)ccc2c1OC(C(=O)O)CC2 (centres unmarked) [Example 6, 3,4-Dihydro-7-[3-[3-methoxy-2-propyl-4-(1H-pyrazol-3-yl)phenoxy]propoxy]-8-propyl-2H-1-benzopyran-2-carboxylic acid]	0.66	0.35
